Tests used:
[1] = target: L-Selectin (Homo sapiens, UniProt P14151); settings: compared to NeuAcα2,3Galβ1,4(Fucα1,3)GlcNAcβ-O-Me (sialyl Lewis-x); cited from earlier work
[2] = target: P-Selectin (Homo sapiens, UniProt P16109); settings: compared to NeuAcα2,3Galβ1,4(Fucα1,3)GlcNAcβ-O-Me (sialyl Lewis-x); cited from earlier work
[3] = target: T1, Rat recombinant α2,6(N)ST (Rattus norvegicus, UniProt P13721); assay: Sialyltransferase assay with cloned α2,6(N)ST; format: biochemical; settings: Table I; acceptor 7.5 mM; sialylated product quantitated on Biogel P2 column
T1 construct: purchased Calbiochem
T1 sequence (P13721 1-403): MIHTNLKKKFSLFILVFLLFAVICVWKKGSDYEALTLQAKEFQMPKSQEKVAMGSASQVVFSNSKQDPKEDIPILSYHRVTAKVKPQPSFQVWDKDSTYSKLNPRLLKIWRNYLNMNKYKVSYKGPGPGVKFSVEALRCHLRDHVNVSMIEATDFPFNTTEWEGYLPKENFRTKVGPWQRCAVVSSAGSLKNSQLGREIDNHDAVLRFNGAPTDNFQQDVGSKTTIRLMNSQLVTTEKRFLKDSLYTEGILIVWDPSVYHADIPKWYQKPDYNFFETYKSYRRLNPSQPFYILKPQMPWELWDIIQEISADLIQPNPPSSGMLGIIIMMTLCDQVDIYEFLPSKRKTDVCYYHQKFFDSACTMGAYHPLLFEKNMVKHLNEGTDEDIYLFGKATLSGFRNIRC

[4] = target: T2, Rat recombinant α2,3(O)ST (Rattus norvegicus, UniProt Q11205); assay: Sialyltransferase assay with cloned α2,3(O)ST; format: biochemical; settings: Table I; acceptor 7.5 mM; [14C] sialylated product quantitated on Biogel P2 column
T2 construct: purchased Calbiochem
T2 sequence (Q11205 1-350): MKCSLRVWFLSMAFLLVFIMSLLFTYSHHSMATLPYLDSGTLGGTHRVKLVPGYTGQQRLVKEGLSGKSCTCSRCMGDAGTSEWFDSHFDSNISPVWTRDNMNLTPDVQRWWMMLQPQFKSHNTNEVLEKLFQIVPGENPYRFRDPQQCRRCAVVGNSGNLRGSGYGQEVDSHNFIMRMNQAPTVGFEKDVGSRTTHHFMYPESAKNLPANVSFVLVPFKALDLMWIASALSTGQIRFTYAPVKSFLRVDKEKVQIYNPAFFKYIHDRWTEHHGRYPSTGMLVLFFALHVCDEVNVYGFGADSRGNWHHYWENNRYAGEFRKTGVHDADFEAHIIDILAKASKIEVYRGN

[5] = system: α1,2-L-FT of colon tumor CC9338; assay: α1,2-L-FT assay, colon tumor extract; format: biochemical, human; settings: 1 mg protein of the tissue extract
Experimental: (§1) Colon tumor tissue (CC9338) and breast tumor tissue (BC9400) were obtained during surgical procedures at Roswell Park Cancer Institute and stored frozen within 1 h at −70° C. The tissues were homogenized at 4° C. with 4 volumes of 0.1M Tris Maleate […] 0.1% NaN3 using kinematica. After adjusting the concentration of Triton X-100 to 2%, these homogenates were mixed in the cold room for 1 h using Speci-Mix (Thermolyne) and then centrifuged at 20,000 g for 1 h at 4° C. The clear fat-free supernatant was stored frozen at −20° C. until use. Aliquots of 10 μL from this extract were used in assays run in duplicates. Glycosyltransferase activity in cell lysate was determined by mixing the lysates with acceptor and radiolabeled donor (monosaccharide) under the reaction conditions detailed below, followed by separation of un-reacted donor from the radioactive product using anionic or hydrophobic chromatography. In all cases, the radioactive content of isolated products was determined by using 3a70 scintillation cocktail (Research Products International, Mount Prospect, Ill.) and a Beckman LS6500 scintillation counter. Controls for each assay contained the reaction mixture with everything except the acceptor. All assays were run in duplicate.
(§2) α1,2, α1,6-, α1,3- and α1,4-fucosyltransferase (FT) assay reactions were carried out for 2 h in a reaction mixture containing 50 mM Hepes buffer (pH 7.5), 5 mM MnCl2, 7 mM ATP, 3 mM NaN3, 3 mM synthetic acceptor or 40 μg of fetuin-based acceptor, 0.05 μCi GDP-[14C]Fuc (290 mCi/mmol) and 10 μl cell extract in a total volume of 20 μl [Chandrasekaran et al., 1996]. Sulfotransferase (Sulfo T) assay reactions took 2 h and required a mixture containing 100 mM Tris-maleate (pH 7.2), 5 mM Mg Acetate, 5 mM ATP, 10 mM NaF, 10 mM BAL, 7.5 mM acceptor, 0.5 μCi of [^35S]PAPS (specific activity 2.4 Ci/mmol) and 10 μl of cell extract in a total volume of 30 μl [Chandrasekaran et al., 2004].
(§3) Dowex-1-C1 or Sep-Pak C18 cartridges were used to isolate radiolabeled product from the reaction mixture. For GalT, GalNAc-T and FT assays, the incubation mixture was diluted with 1 ml water and passed through a 1 ml Dowex-1-C1 column [Chandrasekaran et al., 1996; Chandrasekaran et al., 2001]. The column was washed twice with 1 ml of water. The breakthrough and the water wash contained the [^14C]-galactosylated or [^14C]-fucosylated products formed with neutral acceptors. 3 ml of 0.1M NaCl was used to obtain [^14C]-fucosylated products from sialylated acceptors after water elution. For sialytransferase assays, the radioactive products from benzylglycosides were separated by hydrophobic chromatography on Sep-Pak C18 cartridge (Waters, Milford, Mass.), and elution of the product was done with 3 ml methanol [Palcic et al., 1988]. […]

[6] = system: α1,2-L-FT of breast tumor BC9400; assay: α1,2-L-FT assay, breast tumor extract; format: biochemical, human; settings: 1 mg protein of the tissue extract
Experimental: as §1, §2, §3

[7] = system: β-GlcNAc:β1,4Gal-T of colon tumor CC9338; assay: β-GlcNAc:β1,4Gal-T assay, colon tumor extract; format: biochemical, human; settings: other acceptors, 1 mg protein of the tissue extract
Experimental: as §1
(§4) The acceptors used for measuring the glycosyltransferase and sulfotransferase activities are given in Table I. The following are the conditions for individual enzymatic assays. Reaction temperature in all cases was 37° C. α2,3- and α2,6 sialytransferase (ST) assay reactions proceeded for 2 h in a mixture containing 100 mM sodium cacodylate buffer (pH 6.0), 7.5 mM acceptor, CMP-[9-^3H]NeuAc (typically 0.2 μCi) and 10 μl cell extract in a total volume of 20 μl [Chandrasekaran et al., 1995]. βGlcNAc:β1,4Gal-T and αGalNAc:β1,3Gal-T assay mixtures in duplicate contained 0.1M Hepes-NaOH pH 7.0, 7 mM ATP, 20 mM Mn acetate, 1 mM UDP-Gal, UDP [^14C]Gal (0.05 μCi; 327mCi/mmol; Amersham), 0.5 mM acceptor (unless otherwise stated) and the enzyme in a total volume of 20 μL. It was incubated for 4 h [Chandrasekaran et al., 2001]. βGlcNAc:β1,4GalNAc-T assay mixtures in duplicate contained 0.1M Hepes-NaOH pH 7.0, 7 mM ATP, 20 mM Mn acetate. UDP [^3H] GalNAc (0.20 μCi; 7.8 Ci/mmol: New England Nuclear Corp.) 7.5 mM acceptor (unless otherwise stated) and the enzyme in a total volume of 20 μL and incubated for 4 h [Chandrasekaran et al., 2001].
(§5) Dowex-1-C1 or Sep-Pak C18 cartridges were used to isolate radiolabeled product from the reaction mixture. For GalT, GalNAc-T and FT assays, the incubation mixture was diluted with 1 ml water and passed through a 1 ml Dowex-1-C1 column [Chandrasekaran et al., 1996; Chandrasekaran et al., 2001]. The column was washed twice with 1 ml of water. The breakthrough and the water wash contained the [^14C]-galactosylated or [^14C]-fucosylated products formed with neutral acceptors. 3 ml of 0.1M NaCl was used to obtain [^14C]-fucosylated products from sialylated acceptors after water elution. For sialytransferase assays, the radioactive products from benzylglycosides were separated by hydrophobic chromatography on Sep-Pak C18 cartridge (Waters, Milford, Mass.), and elution of the product was done with 3 ml methanol [Palcic et al., 1988]. For sulfotransferase assays, elution of the [^35S]-sulfated compound from Dowex-1-C1 column was achieved by 3 ml of 0.2M NaCl [Chandrasekaran et al., 2004].

[8] = system: β-GlcNAc:β1,4Gal-T of breast tumor BC9400; assay: β-GlcNAc:β1,4Gal-T assay, breast tumor extract; format: biochemical, human; settings: other acceptors, 1 mg protein of the tissue extract
Experimental: as §1, §4, §5

[9] = system: β-GlcNAc:β1,4GalNAc-T of colon tumor CC9338; assay: β-GlcNAc:β1,4GalNAc-T assay, colon tumor extract; format: biochemical, human; settings: other acceptors, 1 mg protein of the tissue extract
Experimental: as §1, §4, §5

[10] = system: β-GlcNAc:β1,4GalNAc-T of breast tumor BC9400; assay: β-GlcNAc:β1,4GalNAc-T assay, breast tumor extract; format: biochemical, human; settings: other acceptors, 1 mg protein of the tissue extract
Experimental: as §1, §4, §5

Sequence of P-Selectin (P16109 42-830, species assumed): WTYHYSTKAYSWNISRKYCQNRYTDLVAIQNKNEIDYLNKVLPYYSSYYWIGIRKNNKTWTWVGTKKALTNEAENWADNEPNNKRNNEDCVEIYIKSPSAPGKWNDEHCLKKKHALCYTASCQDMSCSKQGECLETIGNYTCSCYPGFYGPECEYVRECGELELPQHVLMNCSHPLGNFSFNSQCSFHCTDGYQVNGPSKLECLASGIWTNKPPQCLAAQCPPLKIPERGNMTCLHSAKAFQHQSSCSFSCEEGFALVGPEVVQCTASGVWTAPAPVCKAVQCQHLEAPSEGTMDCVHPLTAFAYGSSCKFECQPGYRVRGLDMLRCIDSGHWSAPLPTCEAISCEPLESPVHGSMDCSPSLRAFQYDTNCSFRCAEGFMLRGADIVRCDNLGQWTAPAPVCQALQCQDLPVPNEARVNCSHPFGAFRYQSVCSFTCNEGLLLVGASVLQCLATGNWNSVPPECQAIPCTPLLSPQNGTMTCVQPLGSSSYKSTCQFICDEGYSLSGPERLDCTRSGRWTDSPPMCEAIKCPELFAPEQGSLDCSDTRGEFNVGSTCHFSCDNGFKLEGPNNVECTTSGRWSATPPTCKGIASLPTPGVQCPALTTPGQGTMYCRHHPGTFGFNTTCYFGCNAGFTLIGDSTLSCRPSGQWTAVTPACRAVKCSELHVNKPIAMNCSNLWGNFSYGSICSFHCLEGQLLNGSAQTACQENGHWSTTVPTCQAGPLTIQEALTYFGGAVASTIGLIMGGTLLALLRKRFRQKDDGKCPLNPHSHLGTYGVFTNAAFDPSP
Sequence of L-Selectin (P14151 39-372, species assumed): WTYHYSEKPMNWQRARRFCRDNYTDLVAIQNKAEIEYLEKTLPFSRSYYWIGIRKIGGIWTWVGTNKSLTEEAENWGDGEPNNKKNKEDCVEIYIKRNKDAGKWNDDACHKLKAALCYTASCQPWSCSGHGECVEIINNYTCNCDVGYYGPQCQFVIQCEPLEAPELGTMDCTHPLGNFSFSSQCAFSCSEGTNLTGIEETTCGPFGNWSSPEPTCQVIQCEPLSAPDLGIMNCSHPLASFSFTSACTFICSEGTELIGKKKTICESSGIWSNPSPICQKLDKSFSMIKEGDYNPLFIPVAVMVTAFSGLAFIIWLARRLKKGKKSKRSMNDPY

| Structure (SMILES) | a) β-GlcNAc:β1,4Gal-T activity: incorporation of radioactive sugar [7] | a) β-GlcNAc:β1,4Gal-T activity: incorporation of radioactive sugar [8] | b) β-GlcNAc:β1,4GalNAc-T activity: incorporation of radioactive sugar [9] | b) β-GlcNAc:β1,4GalNAc-T activity: incorporation of radioactive sugar [10] | further results |
| --- | --- | --- | --- | --- | --- |
| COC1OC(COC2OC(CO)C(OC3OC(CO)C(O)C(O)C3NC(C)=O)C(OC3OC(C)C(O)C(O)C3O)C2NC(C)=O)C(O)C(OC2OC(CO)C(O)C(OC3(C(=O)O)CC(O)C(NC(C)=O)C(C(O)C(O)CO)O3)C2O)C1NC(C)=O (centres unmarked) [GalNAcβ1,4(Fucα1,3)GlcNAcβ1,6(NeuAcα2,3Galβ1,3) GalNAcα-O-Me] | – | – | – | – | fold better inhibitor of L-Selectin binding [1]: 5-6 fold; fold better inhibitor of P-Selectin binding [2]: 5-6 fold |
| CC(=O)N[C@H]1[C@H](OC[C@H]2O[C@H](OCc3ccccc3)[C@H](NC(C)=O)[C@@H](O[C@@H]3O[C@H](CO)[C@H](O)[C@H](OS(=O)(=O)O)[C@H]3O)[C@H]2O)O[C@H](CO)[C@@H](O[C@@H]2O[C@H](CO)[C@H](O)[C@H](O)[C@H]2O)[C@@H]1O [Galβ1,4GlcNAcβ1,6(3-O-SulfoGalβ1,3)GalNAcα-O-Bn] | – | – | – | – | Sialyltransferase activity (%) Cloned α2,6(N)ST [3]: 127.4^e,18%; Sialyltransferase activity (%) Cloned α2,3(O)ST [4]: 33.1^e,7% |
| OC[C@H]1O[C@@H](OCc2ccccc2)[C@H](O)[C@@H](O)[C@H]1O [Galβ-O-Bn] | – | – | – | – | α1,2-L-FT activity: incorporation of radioactive sugar [5]: 20.6 CPM × 10^−3; α1,2-L-FT activity: incorporation of radioactive sugar [6]: 9.8 CPM × 10^−3 |
| C=CCO[C@@H]1O[C@H](CO[C@@H]2O[C@H](CO)[C@@H](O)[C@H](O)[C@@H]2O[C@@H]2O[C@H](CO)[C@@H](O)[C@H](O)[C@H]2NC(C)=O)[C@@H](O)[C@H](O)[C@H]1O [GlcNAcβ1,2Manβ1,6Glcβ-O—Al] | 277.7 CPM × 10^−3 | 70.5 CPM × 10^−3 | 25.6 CPM × 10^−3 | 57.9 CPM × 10^−3 | – |
| CO[C@@H]1O[C@H](CO)[C@H](O)[C@H](O[C@@H]2O[C@H](CO)[C@@H](O)[C@H](O)[C@H]2NC(C)=O)[C@H]1O [GlcNAcβ1,3Galβ-O-Me] | 247.9 CPM × 10^−3 | 338.5 CPM × 10^−3 | 20.9 CPM × 10^−3 | 60.9 CPM × 10^−3 | – |

— patent US20100221763A1, “Specific Acceptors for Transferases to Saccharides and Method for Obtaining and Using Same” (Health Research, Inc, priority 2005, published 2010)
